Experimental data taken from paper PMC5218480 (PLoS ONE, 2017).

Tested on: MV-4-11 cells
Assay: Gene expression microarray analysis (Affymetrix PrimeView) and GSEA
Format: cell-based, human
Set-up: RFU PODN (11730768_x_at) / Fold change /veh PODN (11730768_x_at) / RFU LINC00158 (11744669_a_at) / Fold change /veh LINC00158 (11744669_a_at) / RFU DUSP10 (11751237_a_at) / Fold change /veh DUSP10 (11751237_a_at) / RFU ID3 (11757404_x_at) / Fold change /veh ID3 (11757404_x_at) / RFU PLEKHG5 (11737974_s_at) / Fold change /veh PLEKHG5 (11737974_s_at) / RFU LRRC4B (11730491_at) / Fold change /veh LRRC4B (11730491_at) / RFU GIMAP4 (11747438_a_at) / Fold change /veh GIMAP4 (11747438_a_at) / RFU KRT8 (11758183_x_at) / Fold change /veh KRT8 (11758183_x_at) / RFU CNN1 (11734310_a_at) / Fold change /veh CNN1 (11734310_a_at) / RFU VPS37D (11726825_at) / Fold change /veh VPS37D (11726825_at) / RFU C10orf10 (11716522_x_at) / Fold change /veh C10orf10 (11716522_x_at) / RFU KIR2DL2 /// KIR2DL4 /// KIR2DL5A /// KIR2DL5B /// KIR2DS1 /// KIR2DS2 /// KIR2DS3 /// KIR2DS4 /// KIR3DL3 /// KIR3DL3 /// KIR3DS1 (11738374_at) / Fold change /veh KIR2DL2 /// KIR2DL4 /// KIR2DL5A /// KIR2DL5B /// KIR2DS1 /// KIR2DS2 /// KIR2DS3 /// KIR2DS4 /// KIR3DL3 /// KIR3DL3 /// KIR3DS1 (11738374_at) / RFU C1QL1 (11718748_at) / Fold change /veh C1QL1 (11718748_at) / RFU TMPRSS4 (11747572_a_at) / Fold change /veh TMPRSS4 (11747572_a_at) / RFU HAMP (11756126_x_at) / Fold change /veh HAMP (11756126_x_at) / RFU RNFT2 (11725882_a_at) / Fold change /veh RNFT2 (11725882_a_at) / RFU NR4A2 (11747474_a_at) / Fold change /veh NR4A2 (11747474_a_at) / RFU ABCC12 (11746883_a_at) / Fold change /veh ABCC12 (11746883_a_at) / RFU TMEM136 (11760407_x_at) / Fold change /veh TMEM136 (11760407_x_at) / RFU CLDN22 /// WWC2 (11732394_at) / Fold change /veh CLDN22 /// WWC2 (11732394_at) / RFU HLA-DPB1 (11760878_x_at) / Fold change /veh HLA-DPB1 (11760878_x_at) / RFU SPINT1 (11716480_a_at) / Fold change /veh SPINT1 (11716480_a_at) / RFU GAP43 (11754022_s_at) / Fold change /veh GAP43 (11754022_s_at) / RFU A4GNT (11735810_at) / Fold change /veh A4GNT (11735810_at) / RFU PRB3 (11715151_x_at) / Fold change /veh PRB3 (11715151_x_at) / RFU TUBB4B (11761932_at) / Fold change /veh TUBB4B (11761932_at) / RFU CAPN14 (11732068_a_at) / Fold change /veh CAPN14 (11732068_a_at) / RFU TMCC2 (11721928_a_at) / Fold change /veh TMCC2 (11721928_a_at) / RFU IRGQ (11745062_a_at) / Fold change /veh IRGQ (11745062_a_at) / RFU FAM174B (11720279_a_at) / Fold change /veh FAM174B (11720279_a_at) / RFU TMPRSS4 (11748680_a_at) / Fold change /veh TMPRSS4 (11748680_a_at) / RFU FAM212B (11763350_a_at) / Fold change /veh FAM212B (11763350_a_at) / RFU PLEKHG5 (11743358_a_at) / Fold change /veh PLEKHG5 (11743358_a_at) / RFU ZSCAN30 (11745921_a_at) / Fold change /veh ZSCAN30 (11745921_a_at) / RFU CMKLR1 (11741424_a_at) / Fold change /veh CMKLR1 (11741424_a_at) / RFU LOC101060620 /// MAPK8IP1 (11723275_at) / Fold change /veh LOC101060620 /// MAPK8IP1 (11723275_at) / RFU SPTSSB (11747773_x_at) / Fold change /veh SPTSSB (11747773_x_at) / RFU PRSS12 (11739890_at) / Fold change /veh PRSS12 (11739890_at) / RFU BIN1 (11741810_x_at) / Fold change /veh BIN1 (11741810_x_at) / RFU WNT11 (11732464_a_at) / Fold change /veh WNT11 (11732464_a_at) / RFU C10orf10 (11716521_a_at) / Fold change /veh C10orf10 (11716521_a_at) / RFU C5orf56 (11738089_at) / Fold change /veh C5orf56 (11738089_at) / RFU CYB561 (11721691_x_at) / Fold change /veh CYB561 (11721691_x_at) / RFU ANKRD19P (11752326_a_at) / Fold change /veh ANKRD19P (11752326_a_at) / RFU OR2T12 /// OR2T33 /// OR2T8 (11738714_s_at) / Fold change /veh OR2T12 /// OR2T33 /// OR2T8 (11738714_s_at) / RFU VCAN (11748164_a_at) / Fold change /veh VCAN (11748164_a_at) / RFU JSRP1 (11732532_at) / Fold change /veh JSRP1 (11732532_at) / RFU KRTAP10-11 (11738290_x_at) / Fold change /veh KRTAP10-11 (11738290_x_at) / RFU MYO3A (11730013_a_at) / Fold change /veh MYO3A (11730013_a_at) / RFU EBF3 (11725865_a_at) / Fold change /veh EBF3 (11725865_a_at) / RFU CAMK2N1 (11719241_x_at) / Fold change /veh CAMK2N1 (11719241_x_at) / RFU C5orf56 (11738088_a_at) / Fold change /veh C5orf56 (11738088_a_at) / RFU OLFML3 (11715873_a_at) / Fold change /veh OLFML3 (11715873_a_at) / RFU LOC100653217 /// NTM (11731650_a_at) / Fold change /veh LOC100653217 /// NTM (11731650_a_at) / RFU MAPK11 (11762145_a_at) / Fold change /veh MAPK11 (11762145_a_at) / RFU FIZ1 (11724087_x_at) / Fold change /veh FIZ1 (11724087_x_at) / RFU OASL (11726364_x_at) / Fold change /veh OASL (11726364_x_at) / RFU SOX15 (11748057_x_at) / Fold change /veh SOX15 (11748057_x_at) / RFU CD79A (11719716_a_at) / Fold change /veh CD79A (11719716_a_at) / RFU HIST1H1D (11736915_at) / Fold change /veh HIST1H1D (11736915_at) / RFU CASKIN2 (11723855_a_at) / Fold change /veh CASKIN2 (11723855_a_at) / RFU LOC730098 (11760151_x_at) / Fold change /veh LOC730098 (11760151_x_at) / RFU OR4N2 (11742367_at) / Fold change /veh OR4N2 (11742367_at) / RFU PRRT2 (11749266_a_at) / Fold change /veh PRRT2 (11749266_a_at) / RFU SNX32 (11753110_a_at) / Fold change /veh SNX32 (11753110_a_at) / RFU CDHR5 (11726645_a_at) / Fold change /veh CDHR5 (11726645_a_at) / RFU RCAN1 (11760418_a_at) / Fold change /veh RCAN1 (11760418_a_at) / RFU FAM167A (11723789_a_at) / Fold change /veh FAM167A (11723789_a_at) / RFU FAM26E (11764081_at) / Fold change /veh FAM26E (11764081_at) / RFU ISYNA1 (11749810_s_at) / Fold change /veh ISYNA1 (11749810_s_at) / RFU ACY1 (11761880_at) / Fold change /veh ACY1 (11761880_at) / RFU 11764098_at / Fold change /veh 11764098_at / RFU SAMD14 (11745864_x_at) / Fold change /veh SAMD14 (11745864_x_at) / RFU NPB (11741838_a_at) / Fold change /veh NPB (11741838_a_at) / RFU TMPRSS6 (11731388_a_at) / Fold change /veh TMPRSS6 (11731388_a_at) / RFU KRTAP10-2 (11738614_at) / Fold change /veh KRTAP10-2 (11738614_at) / RFU ARHGAP8 /// PRR5-ARHGAP8 (11727945_x_at) / Fold change /veh ARHGAP8 /// PRR5-ARHGAP8 (11727945_x_at) / RFU KRTAP5-7 /// NADSYN1 (11734609_at) / Fold change /veh KRTAP5-7 /// NADSYN1 (11734609_at) / RFU RASL12 (11751679_a_at) / Fold change /veh RASL12 (11751679_a_at) / RFU CDKN2B (11736163_a_at) / Fold change /veh CDKN2B (11736163_a_at) / RFU PRF1 (11729649_at) / Fold change /veh PRF1 (11729649_at) / RFU, ZNF638 /// ZNF638-IT1 / Fold change vs veh, ZNF638 /// ZNF638-IT1 / RFU, PANK3 / Fold change vs veh, PANK3 / RFU, SH3YL1 / Fold change vs veh, SH3YL1 / RFU, ZEB2 / Fold change vs veh, ZEB2 / RFU, NRIP1 / Fold change vs veh, NRIP1 / RFU, PTTG1IP / Fold change vs veh, PTTG1IP / RFU, CAPN2 / Fold change vs veh, CAPN2 / RFU, MED14 / Fold change vs veh, MED14 / RFU, SNORA58 / Fold change vs veh, SNORA58 / RFU, C1orf63 / Fold change vs veh, C1orf63 / RFU, LRRFIP1 / Fold change vs veh, LRRFIP1 / RFU, NDUFAF7 / Fold change vs veh, NDUFAF7 / RFU, SLC12A2 / Fold change vs veh, SLC12A2 / RFU, IBTK / Fold change vs veh, IBTK / RFU, ESF1 / Fold change vs veh, ESF1 / Fold change vs veh, TMEM50B / RFU, TAOK1 / Fold change vs veh, TAOK1 / RFU, ACBD3 / Fold change vs veh, ACBD3 / RFU, TMA16 / Fold change vs veh, TMA16 / RFU, RWDD3 / Fold change vs veh, RWDD3 / RFU, BCAT1 / Fold change vs veh, BCAT1 / RFU, EDEM3 / Fold change vs veh, EDEM3 / RFU, TMEM33 / Fold change vs veh, TMEM33 / RFU, WDR75 / Fold change vs veh, WDR75 / RFU, AHCTF1 / Fold change vs veh, AHCTF1 / RFU, TFRC / Fold change vs veh, TFRC / RFU, ZDHHC17 / Fold change vs veh, ZDHHC17 / RFU, NOM1 / Fold change vs veh, NOM1 / RFU, ARL8B / Fold change vs veh, ARL8B / RFU, ZBTB11 / Fold change vs veh, ZBTB11 / RFU, TAMM41 / Fold change vs veh, TAMM41 / RFU, KIAA1704 /// LOC100996395 / Fold change vs veh, KIAA1704 /// LOC100996395 / RFU, ING1 / Fold change vs veh, ING1 / RFU, TRMT61B / Fold change vs veh, TRMT61B / RFU, FUBP3 / Fold change vs veh, FUBP3 / RFU, TP53 / Fold change vs veh, TP53 / RFU, TNKS2 / Fold change vs veh, TNKS2 / RFU, ZFP14 / Fold change vs veh, ZFP14 / RFU, ACTR2 / Fold change vs veh, ACTR2 / RFU, PPP3R1 / Fold change vs veh, PPP3R1 / RFU, PIK3R1 / Fold change vs veh, PIK3R1 / RFU, HNRNPA1 / Fold change vs veh, HNRNPA1 / RFU, RNF170 / Fold change vs veh, RNF170 / RFU, ZNF28 / Fold change vs veh, ZNF28 / RFU, RNGTT / Fold change vs veh, RNGTT / RFU, OGT / Fold change vs veh, OGT / RFU, BRD1 / Fold change vs veh, BRD1 / RFU, MARS / Fold change vs veh, MARS / RFU, ZNF655 / Fold change vs veh, ZNF655 / RFU, FAHD1 / Fold change vs veh, FAHD1 / RFU, BDP1 / Fold change vs veh, BDP1 / RFU, LRRCC1 / Fold change vs veh, LRRCC1 / RFU, ARID1A / Fold change vs veh, ARID1A / RFU, ZNF146 / Fold change vs veh, ZNF146 / RFU, ZNF330 / Fold change vs veh, ZNF330 / RFU, GPN3 / Fold change vs veh, GPN3 / RFU, C9orf123 / Fold change vs veh, C9orf123 / RFU, N4BP2L2 / Fold change vs veh, N4BP2L2 / RFU, ARFIP1 / Fold change vs veh, ARFIP1 / RFU, FAM179B / Fold change vs veh, FAM179B / RFU, BCL10 / Fold change vs veh, BCL10 / RFU, UHRF1BP1L / Fold change vs veh, UHRF1BP1L / RFU, BET1 / Fold change vs veh, BET1 / RFU, CNOT2 / Fold change vs veh, CNOT2 / RFU, ZNF268 / Fold change vs veh, ZNF268 / Fold change vs veh, ZNF507 / RFU, DGCR2 / Fold change vs veh, DGCR2 / RFU, WDSUB1 / Fold change vs veh, WDSUB1 / Fold change vs veh, HSP90B1 /// MIR3652 / RFU, ADSS / Fold change vs veh, ADSS / RFU, GK / Fold change vs veh, GK / RFU, ZNF148 / Fold change vs veh, ZNF148 / RFU, TAF9 / Fold change vs veh, TAF9 / RFU, SLC1A5 / Fold change vs veh, SLC1A5 / RFU, SLMO2 / Fold change vs veh, SLMO2 / RFU, ABCC4 / Fold change vs veh, ABCC4 / RFU, LOC101060439 /// RAP1B / Fold change vs veh, LOC101060439 /// RAP1B / RFU, RFX7 / Fold change vs veh, RFX7 / RFU, GTPBP10 / Fold change vs veh, GTPBP10 / RFU, CNEP1R1 / Fold change vs veh, CNEP1R1 / RFU, BIVM-ERCC5 /// ERCC5 / Fold change vs veh, BIVM-ERCC5 /// ERCC5 / RFU, ILF3 / Fold change vs veh, ILF3 / RFU 11762660_at / Fold change /veh 11762660_at / RFU VCAN (11757783_s_at) / Fold change /veh VCAN (11757783_s_at) / RFU DDX43 (11728927_at) / Fold change /veh DDX43 (11728927_at) / RFU KRT8 (11758188_x_at) / Fold change /veh KRT8 (11758188_x_at) / RFU NKD1 (11759106_at) / Fold change /veh NKD1 (11759106_at) / RFU SRD5A1 (11742802_a_at) / Fold change /veh SRD5A1 (11742802_a_at) / RFU TPSAB1 /// TPSB2 (11721975_s_at) / Fold change /veh TPSAB1 /// TPSB2 (11721975_s_at) / RFU GSTM3 (11746129_a_at) / Fold change /veh GSTM3 (11746129_a_at) / RFU IL23R (11737362_x_at) / Fold change /veh IL23R (11737362_x_at) / RFU TMEM51 (11727254_a_at) / Fold change /veh TMEM51 (11727254_a_at) / RFU PIWIL2 (11732686_x_at) / Fold change /veh PIWIL2 (11732686_x_at) / RFU ORM1 (11744905_x_at) / Fold change /veh ORM1 (11744905_x_at) / RFU CCDC152 (11743942_at) / Fold change /veh CCDC152 (11743942_at) / RFU ECM1 (11717891_a_at) / Fold change /veh ECM1 (11717891_a_at) / RFU IL23R (11748794_a_at) / Fold change /veh IL23R (11748794_a_at) / RFU TNFAIP8L3 (11732012_x_at) / Fold change /veh TNFAIP8L3 (11732012_x_at) / RFU MBOAT4 (11741988_at) / Fold change /veh MBOAT4 (11741988_at) / RFU 11764193_at / Fold change /veh 11764193_at / RFU TMEM53 (11763286_at) / Fold change /veh TMEM53 (11763286_at) / RFU MAGEB2 (11727129_at) / Fold change /veh MAGEB2 (11727129_at) / RFU TMEM200A (11744735_a_at) / Fold change /veh TMEM200A (11744735_a_at) / RFU CCDC152 (11751479_a_at) / Fold change /veh CCDC152 (11751479_a_at) / RFU FAM211A (11726209_a_at) / Fold change /veh FAM211A (11726209_a_at) / RFU RGS16 (11746705_a_at) / Fold change /veh RGS16 (11746705_a_at) / RFU VCAN (11755009_s_at) / Fold change /veh VCAN (11755009_s_at) / RFU RHOB (11743442_s_at) / Fold change /veh RHOB (11743442_s_at) / RFU RGS16 (11720943_a_at) / Fold change /veh RGS16 (11720943_a_at) / RFU RGS16 (11720944_at) / Fold change /veh RGS16 (11720944_at) / RFU, VPS4B / Fold change vs veh, VPS4B / RFU, CREB1 / Fold change vs veh, CREB1 / RFU, DNAJC13 / Fold change vs veh, DNAJC13 / RFU, GNAQ / Fold change vs veh, GNAQ / RFU, CDK5R1 / Fold change vs veh, CDK5R1 / RFU, ZRANB3 / Fold change vs veh, ZRANB3 / RFU, CUL4A / Fold change vs veh, CUL4A / RFU, CCNY / Fold change vs veh, CCNY / RFU, UFL1 / Fold change vs veh, UFL1 / RFU, COG3 / Fold change vs veh, COG3 / RFU, DIAPH2 / Fold change vs veh, DIAPH2 / RFU, SKA2 / Fold change vs veh, SKA2 / RFU, AFF3 / Fold change vs veh, AFF3 / RFU, LMF1 / Fold change vs veh, LMF1 / RFU, IPO11 / Fold change vs veh, IPO11 / RFU, DFFB / Fold change vs veh, DFFB / RFU, FOXP1 / Fold change vs veh, FOXP1 / RFU, CARD8 / Fold change vs veh, CARD8 / RFU, STRN3 / Fold change vs veh, STRN3 / RFU, ADK / Fold change vs veh, ADK / RFU, RASSF2 / Fold change vs veh, RASSF2 / RFU, WIPF1 / Fold change vs veh, WIPF1 / RFU, LARP1B / Fold change vs veh, LARP1B / RFU, RASA1 / Fold change vs veh, RASA1 / RFU, RB1 / Fold change vs veh, RB1 / RFU, PPFIA1 / Fold change vs veh, PPFIA1 / RFU, MAT2A / Fold change vs veh, MAT2A / RFU, CCT5 / Fold change vs veh, CCT5 / RFU, WDR92 / Fold change vs veh, WDR92 / RFU, CUX1 / Fold change vs veh, CUX1 / RFU, TTC7A / Fold change vs veh, TTC7A / RFU, TMEM135 / Fold change vs veh, TMEM135 / RFU, DEPTOR / Fold change vs veh, DEPTOR / RFU, CPM / Fold change vs veh, CPM / RFU, DNAJB6 / Fold change vs veh, DNAJB6 / RFU, CACNA2D3 / Fold change vs veh, CACNA2D3 / RFU, DTX4 / Fold change vs veh, DTX4 / RFU, TFCP2 / Fold change vs veh, TFCP2 / RFU, GMCL1 /// GMCL1P1 / Fold change vs veh, GMCL1 /// GMCL1P1 / RFU, AEBP2 / Fold change vs veh, AEBP2 / RFU, SNHG1 /// SNORD22 /// SNORD25 /// SNORD26 /// SNORD27 /// SNORD28 /// SNORD29 /// SNORD31 / Fold change vs veh, SNHG1 /// SNORD22 /// SNORD25 /// SNORD26 /// SNORD27 /// SNORD28 /// SNORD29 /// SNORD31 / Fold change (Aza/veh), C12orf56 (ProbeSet 11735607_a_at) / Fold change (ACY-1035/veh), C12orf56 (ProbeSet 11735607_a_at) / Fold change (Aza/veh), FGFR1OP (ProbeSet 11751329_s_at) / Fold change (ACY-1035/veh), FGFR1OP (ProbeSet 11751329_s_at) / Fold change (Aza/veh), VPS36 (ProbeSet 11739960_a_at) / Fold change (ACY-1035/veh), VPS36 (ProbeSet 11739960_a_at) / RFU SYPL1 (11715823_x_at) / Fold change /veh SYPL1 (11715823_x_at) / RFU IGFBP7 (11715501_s_at) / Fold change /veh IGFBP7 (11715501_s_at) / RFU REEP3 (11722064_at) / Fold change /veh REEP3 (11722064_at) / RFU IGLL1 (11728026_x_at) / Fold change /veh IGLL1 (11728026_x_at): dose or concentration left out as unconfirmed
Conditions: ProbeSet 11748335_a_at; LIST B

Q: For `Nc1ccc(-c2cccs2)cc1NC(=O)c1ccc2c(c1)cc(C1CC1)n2CCN1CCOCC1` [ACY-1035], which “Fold change vs veh, SLMO2” value is on record?
A: 0.88
